# Reference: patent US8324390B2, “Tetrazole-substituted anthranilamides as pesticides” (Bayer CropScience AG, priority 2008, dated 2012)
# Read-outs that look alike come from different tables or passages of the source.
# Columns and labels:
# [1] = log P determination by HPLC (EEC Directive 79/831 Annex V.A8); assay type: physicochemical
# Experimental: The measurements were carried out using an Agilent 1100 LC system with a 50*4.6 Zorbax Eclipse C18 1.8 μm column (oven temperature 55° C., flow rate 2.0 ml/min).
# The following mobile phases were used:
# Mobile phase A: acetonitrile+1000 μl of formic acid/l
# Mobile phase B: Millipore water+900 μl of formic acid/l
# [2] = test system: caterpillars of the armyworm (Spodoptera frugiperda); assay: Spodoptera frugiperda test (SPODFR spray treatment); assay type: in vivo; conditions: Spodoptera frugiperda, foliar, read-out: effect in % (caterpillars killed)
# From the text: (§1) Solvent: 78.0 parts by weight of acetone
# [3] = test system: green peach aphid (Myzus persicae); assay: Myzus test (MYZUPE spray treatment); assay type: in vivo; conditions: for pest or weed control at 100 g/ha: Myzus persicae, foliar, read-out: effect in % (aphids killed); for Kill in %/7 days: 100 g/ha
# From the text: Solvent: 78 parts by weight of acetone
# as §1
# [4] = test system: larvae of the mustard beetle (Phaedon cochleariae); assay: Phaedon test (PHAECO spray treatment); conditions: Phaedon cochleariae, in Brassica rapa, foliar, read-out: effect in % (beetle larvae killed)
# [5] = application rate 100 g/ha, Chinese cabbage leaf discs
# [6] = application rate 100 g/ha, maize leaf discs
# [7] = reversed-phase HPLC, Zorbax Eclipse C18 column, by HPLC according to EEC Directive 79/831 Annex V.A8, read-out: log P
smiles,measurement,setting,value
Cc1cc(C#N)cc(C(=O)NC2CCC2)c1NC(=O)c1cc(Cn2nnnc2C(F)(F)F)nn1-c1ncccc1Cl [Example 186],chromatographic logP,[1]; log P,2.83
same,pest or weed control at 100 g/ha,[2]; in Zea mays,≥ 80%
same,pest or weed control at 100 g/ha,[3]; in Brassica rapa,≥ 80%
same,pest or weed control at 100 g/ha,[4],≥ 80%
CNC(=O)c1cc(I)cc(C)c1NC(=O)c1cc(Cn2nnc(C(F)(C(F)(F)F)C(F)(F)F)n2)nn1-c1ncccc1Cl [Example 377],chromatographic logP,[1]; log P,3.94
same,pest or weed control at 100 g/ha,[2]; in Zea mays,≥ 80%
same,pest or weed control at 100 g/ha,[3]; in Brassica rapa,≥ 80%
same,pest or weed control at 100 g/ha,[4],≥ 80%
Cc1cc(Cl)cc(C(=O)NCC#N)c1NC(=O)c1cc(Cn2nnc(C(F)(F)F)n2)nn1-c1ncccc1Cl [Example 19],chromatographic logP,[1]; log P,2.93
same,pest or weed control at 100 g/ha,[2]; in Zea mays,≥ 80%
same,pest or weed control at 100 g/ha,[3]; in Brassica rapa,≥ 80%
same,pest or weed control at 100 g/ha,[4],≥ 80%
Cc1cc(I)cc(C(=O)NC2CCC2)c1NC(=O)c1cc(Cn2nnc(C(F)F)n2)nn1-c1ncccc1Cl [Example 280],chromatographic logP,[1]; log P,3.34
same,pest or weed control at 100 g/ha,[2]; in Zea mays,≥ 80%
same,pest or weed control at 100 g/ha,[3]; in Brassica rapa,≥ 80%
same,pest or weed control at 100 g/ha,[4],≥ 80%
Cc1cc(I)cc(C(=O)NCC#N)c1NC(=O)c1cc(Cn2nnc(C(F)F)n2)nn1-c1ncccc1Cl [Example 281],chromatographic logP,[1]; log P,2.68
same,pest or weed control at 100 g/ha,[2]; in Zea mays,≥ 80%
same,pest or weed control at 100 g/ha,[3]; in Brassica rapa,≥ 80%
same,pest or weed control at 100 g/ha,[4],≥ 80%
Cc1cc(C#N)cc(C(N)=O)c1NC(=O)c1cc(Cn2nnnc2C(F)(F)C(F)(F)F)nn1-c1ncccc1Br [Example 517],chromatographic logP,"[1]; reversed-phase HPLC, Zorbax Eclipse C18 column, determined by HPLC according to EEC Directive 79/831 Annex V.A8, read-out: log P",2.53
same,pest or weed control at 100 g/ha,[3]; [5],≥ 80%
same,pest or weed control at 100 g/ha,[4],≥ 80%
CCNC(=O)c1cc(C)cc(C)c1NC(=O)c1cc(Cn2nnc(C(F)(F)F)n2)nn1-c1ncccc1Cl [Example 81],chromatographic logP,[1]; log P,3.06
same,pest or weed control at 100 g/ha,[2]; in Zea mays,≥ 80%
same,pest or weed control at 100 g/ha,[3]; in Brassica rapa,≥ 80%
CNC(=O)c1cc(C#N)cc(C)c1NC(=O)c1cc(C(C)n2nnnc2C(F)(F)F)nn1-c1ncccc1Cl (stereo not shown) [Example 512],chromatographic logP,[1]; log P,2.53
same,pest or weed control at 100 g/ha,[3]; in Brassica rapa,≥ 80%
same,pest or weed control at 100 g/ha,[4],≥ 80%
Cc1cc(Cl)cc(C(N)=O)c1NC(=O)c1cc(Cn2nnc(C(F)(F)F)n2)nn1-c1ncccc1Cl [Example 16],log P,[1],2.77
same,pest or weed control at 100 g/ha,[3]; in Brassica rapa,≥ 80%
same,pest or weed control at 100 g/ha,[4],≥ 80%
Cc1cc(C)c(NC(=O)c2cc(Cn3nnc(C(F)(F)F)n3)nn2-c2ncccc2Cl)c(C(=O)NC(C)C2CC2)c1 (stereo not shown) [Example 82],chromatographic logP,[1]; log P,3.59
same,pest or weed control at 100 g/ha,[2]; in Zea mays,≥ 80%
same,pest or weed control at 100 g/ha,[3]; in Brassica rapa,≥ 80%
CSC[C@H](C)NC(=O)c1cc(C#N)cc(C)c1NC(=O)c1cc(Cn2nnc(C(F)(F)F)n2)nn1-c1ncccc1Cl [Example 22],log P,[1],3.27
same,pest or weed control at 100 g/ha,[3]; in Brassica rapa,≥ 80%
Cc1cc(I)cc(C(=O)NC(C)C2CC2)c1NC(=O)c1cc(Cn2nnc(C(F)F)n2)nn1-c1ncccc1Cl (stereo not shown) [Example 274],chromatographic logP,[1]; log P,3.52
same,pest or weed control at 100 g/ha,[2]; in Zea mays,≥ 80%
same,pest or weed control at 100 g/ha,[3]; in Brassica rapa,≥ 80%
Cc1cc(I)cc(C(=O)NCC#N)c1NC(=O)c1cc(Cn2nnc(C(F)(F)F)n2)nn1-c1ncccc1C(F)(F)F [Example 240],pest or weed control at 100 g/ha,[2]; [6],≥ 80%
same,pest or weed control at 100 g/ha,[3]; [5],≥ 80%
same,pest or weed control at 100 g/ha,[4],≥ 80%
Cc1cc(C#N)cc(C(=O)NCCC(F)(F)F)c1NC(=O)c1cc(Cn2nnnc2C(F)(F)F)nn1-c1ncccc1Cl [Example 188],chromatographic logP,[1]; log P,2.88
same,pest or weed control at 100 g/ha,[3]; in Brassica rapa,≥ 80%
same,pest or weed control at 100 g/ha,[4],≥ 80%
CCNC(=O)c1cc(I)cc(C)c1NC(=O)c1cc(Cn2nnc(C(F)(F)F)n2)nn1-c1ncccc1C(F)(F)F [Example 241],pest or weed control at 100 g/ha,[2]; [6],≥ 80%
same,pest or weed control at 100 g/ha,[3]; [5],≥ 80%
same,pest or weed control at 100 g/ha,[4],≥ 80%
Cc1cc(C)c(NC(=O)c2cc(Cn3nnc(C(F)(F)F)n3)nn2-c2ncccc2Cl)c(C(N)=O)c1 [Example 80],chromatographic logP,[1]; log P,2.62
same,pest or weed control at 100 g/ha,[2]; in Zea mays,≥ 80%
same,pest or weed control at 100 g/ha,[3]; in Brassica rapa,≥ 80%
Cc1cc(I)cc(C(=O)NC2CC2)c1NC(=O)c1cc(Cn2nnc(C(F)(F)C(F)(F)F)n2)nn1-c1ncccc1Cl [Example 217],pest or weed control at 100 g/ha,[2]; in Zea mays,≥ 80%
same,pest or weed control at 100 g/ha,[3]; in Brassica rapa,≥ 80%
same,pest or weed control at 100 g/ha,[4],≥ 80%
CNC(=O)c1cc(Cl)cc(C)c1NC(=O)c1cc(Cn2nnnc2C(F)(F)F)nn1-c1ncccc1Cl [drawing 605],Kill in %/7 days,[3],100%
CNC(=O)c1cc(Cl)cc(C)c1NC(=O)c1cc(Cn2nnnc2-c2ccc(C(F)(F)F)cc2)nn1-c1ncccc1Cl [drawing 606],Kill in %/7 days,[3],80%
Cc1cc(C)c(NC(=O)c2cc(Cn3nnnc3C(F)(F)F)nn2-c2ncccc2Cl)c(C(=O)NC(C)C)c1 [Example 179],chromatographic logP,[1]; log P,2.94
same,pest or weed control at 100 g/ha,[2]; in Zea mays,≥ 80%
same,pest or weed control at 100 g/ha,[3]; in Brassica rapa,≥ 80%
Cc1cc(I)cc(C(=O)NC2CC2)c1NC(=O)c1cc(Cn2nnc(C(F)(F)F)n2)nn1-c1ncccc1C(F)(F)F [Example 246],pest or weed control at 100 g/ha,[2]; [6],≥ 80%
same,pest or weed control at 100 g/ha,[3]; [5],≥ 80%
same,pest or weed control at 100 g/ha,[4],≥ 80%
Cc1cc(Cl)cc(C(=O)NC(C)C)c1NC(=O)c1cc(Cn2nnc(C(F)(F)C(F)(F)F)n2)nn1-c1ncccc1Cl [drawing 603],Kill in %/7 days,[3],70%
Cc1cc(Br)cc(C(=O)NCC2CC2)c1NC(=O)c1cc(Cn2nnc(C(F)(F)F)n2)nn1-c1ncccc1Cl [Example 47],chromatographic logP,[1]; log P,3.88
same,pest or weed control at 100 g/ha,[2]; in Zea mays,≥ 80%
same,pest or weed control at 100 g/ha,[4],≥ 80%
Cc1cc(Cl)cc(C(=O)NCC#N)c1NC(=O)c1cc(Cn2nnc(C(F)(F)F)n2)nn1-c1ncccc1Br [Example 325],chromatographic logP,[1]; [7],2.72
same,pest or weed control at 100 g/ha,[2]; [6],≥ 80%
same,pest or weed control at 100 g/ha,[4],≥ 80%
CSC[C@H](C)NC(=O)c1cc(C#N)cc(C)c1NC(=O)c1cc(Cn2nnc(C(F)(F)C(F)(F)F)n2)nn1-c1ncccc1Cl [Example 216],chromatographic logP,[1]; log P,3.68
same,pest or weed control at 100 g/ha,[2]; in Zea mays,≥ 80%
same,pest or weed control at 100 g/ha,[4],≥ 80%
Cc1cc(F)cc(C(=O)NC(C)(C)C)c1NC(=O)c1cc(Cn2nnc(C(F)(F)F)n2)nn1-c1ncccc1Cl [Example 115],chromatographic logP,[1]; log P,3.51
same,pest or weed control at 100 g/ha,[2]; in Zea mays,≥ 80%
same,pest or weed control at 100 g/ha,[4],≥ 80%
CCNC(=O)c1cc(Br)cc(C)c1NC(=O)c1cc(Cn2nnc(C(F)(F)F)n2)nn1-c1ncccc1Cl [Example 34],chromatographic logP,[1]; log P,3.32
same,pest or weed control at 100 g/ha,[2]; in Zea mays,≥ 80%
same,pest or weed control at 100 g/ha,[4],≥ 80%
Cc1cc(C#N)cc(C(=O)NC(C)C)c1NC(=O)c1cc(Cn2nnc(C(F)(F)C(F)(F)F)n2)nn1-c1ncccc1Cl [Example 135],chromatographic logP,[1]; log P,3.55
same,pest or weed control at 100 g/ha,[2]; in Zea mays,≥ 80%
same,pest or weed control at 100 g/ha,[4],≥ 80%
CCNC(=O)c1cc(Cl)cc(C)c1NC(=O)c1cc(Cn2nnc(C(F)(F)F)n2)nn1-c1ncccc1C(F)(F)F [Example 237],chromatographic logP,[1]; [7],3.43
same,pest or weed control at 100 g/ha,[2]; [6],≥ 80%
same,pest or weed control at 100 g/ha,[4],≥ 80%
CCNC(=O)c1cc(Cl)cc(Cl)c1NC(=O)c1cc(Cn2nnc(C(F)(C(F)(F)F)C(F)(F)F)n2)nn1-c1ncccc1Cl [Example 388],chromatographic logP,[1]; log P,3.89
same,pest or weed control at 100 g/ha,[2]; in Zea mays,≥ 80%
same,pest or weed control at 100 g/ha,[4],≥ 80%
Cc1cc(Cl)cc(C(=O)NC2CC2)c1NC(=O)c1cc(Cn2nnc(C(F)(F)C(F)(F)C(F)(F)F)n2)nn1-c1ncccc1Cl [Example 4],chromatographic logP,"[1]; by HPLC according to EEC Directive 79/831 Annex V.A8, read-out: log P",3.96
same,pest or weed control at 100 g/ha,[2]; in Zea mays,≥ 80%
same,pest or weed control at 100 g/ha,[4],≥ 80%
Cc1cc(Cl)cc(C(=O)NC(C)C)c1NC(=O)c1cc(Cn2nnc(C(F)(F)F)n2)nn1-c1ncccc1C(F)(F)F [Example 227],chromatographic logP,[1]; [7],3.64
same,pest or weed control at 100 g/ha,[2]; [6],≥ 80%
same,pest or weed control at 100 g/ha,[4],≥ 80%
